From patent US9790230B2 (Hoffmann-La Roche Inc., priority 2015, dated 2017)
Read-outs that look alike come from different tables or passages of the source.

What was measured:
mouse TAAR1 = mouse TAAR1 (Mus musculus (Mouse), UniProt Q923Y8); experiment: Radioligand binding assay on mouse TAAR1
Experimental: Radioligand Binding Assay on Mouse TAAR1
Membrane Preparation and Radioligand Binding.
HEK-293 cells stably expressing mouse TAAR1 were maintained at 37° C. and 5% CO2 in DMEM high glucose medium, containing fetal calf serum (10%, heat inactivated for 30 min at 56° C.), penicillin/streptomycin (1%), and 375 μg/ml geneticin (Gibco). Cells were released from culture flasks using trypsin/EDTA, harvested, washed twice with ice-cold PBS (without Ca^2+ and Mg^2+), pelleted at 1'000 rpm for 5 min at 4° C., frozen and stored at −80° C. Frozen pellets were suspended in 20 ml HEPES-NaOH (20 mM, pH 7.4) containing 10 mM EDTA and homogenized with a Polytron (PT 6000, Kinematica) at 14'000 rpm for 20 s. The homogenate was centrifuged at 48'000×g for 30 min at 4° C. Subsequently, the supernatant was removed and discarded, and the pellet resuspended in 20 ml HEPES-NaOH (20 mM, pH 7.4) containing 0.1 mM EDTA using the Polytron (20 s at 14'000 rpm). This procedure was repeated and the final pellet resuspended in HEPES-NaOH containing 0.1 mM EDTA and homogenized using the Polytron. Typically, aliquots of 2 ml membrane portions were stored at −80° C. With each new membrane batch the dissociation constant (Kd) was determined via a saturation curve. The TAAR1 radioligand ^3[H]—(S)-4-[(ethyl-phenyl-amino)-methyl]-4,5-dihydro-oxazol-2-ylamine (described in WO 2008/098857) was used at a concentration equal to the calculated Kd value, that was usually around 0.7 nM, resulting in the binding of approximately 0.5% of the radioligand and a specific binding representing approximately 70% of the total binding. Nonspecific binding was defined as the amount of ^3[H]—(S)-4-[(ethyl-phenyl-amino)-methyl]-4,5-dihydro-oxazol-2-ylamine bound in the presence of 10 M unlabeled ligand. All compounds were tested at a broad range of concentrations (10 pM to 10 μM) in duplicates. […] The 96 deep well plates were incubated for 1 hr at 4° C. Incubations were terminated by rapid filtration through Unifilter-96 plates (Packard Instrument Company) and glass filters GF/C (Perkin Elmer) presoaked for 1 hr in polyethylenimine (0.3%) and washed 3 times with 1 ml of cold binding buffer. After addition of 45 μl of Microscint 40 (PerkinElmer) the Unifilter-96 plate was sealed and after 1 hr the radioactivity counted using a TopCount Microplate Scintillation Counter (Packard Instrument Company).

rat TAAR1 = rat TAAR1 (Rattus norvegicus (Rat), UniProt Q923Y9); experiment: Radioligand binding assay on rat TAAR1;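 further: membranes from HEK293 cells stably transfected with rat TAAR1, tritiated TAAR1 radioligand, 1 h incubation at 4 °C, nonspecific binding determined with excess unlabeled ligand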
[1] = read-out: Ki (μM) rat, rat TAAR1, HEK-293 membranes, second value of cell mouse/rat

Sequence of mouse TAAR1 (Q923Y8 whole entry): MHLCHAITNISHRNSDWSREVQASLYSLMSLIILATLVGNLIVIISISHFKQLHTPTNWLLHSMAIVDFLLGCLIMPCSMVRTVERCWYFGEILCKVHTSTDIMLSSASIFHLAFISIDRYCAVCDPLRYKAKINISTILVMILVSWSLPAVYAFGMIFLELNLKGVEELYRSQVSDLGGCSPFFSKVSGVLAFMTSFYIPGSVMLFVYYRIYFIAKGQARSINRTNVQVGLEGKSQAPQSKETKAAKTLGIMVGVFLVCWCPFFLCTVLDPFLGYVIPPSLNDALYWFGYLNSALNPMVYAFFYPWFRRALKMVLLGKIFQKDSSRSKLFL
Sequence of rat TAAR1 (Q923Y9 whole entry): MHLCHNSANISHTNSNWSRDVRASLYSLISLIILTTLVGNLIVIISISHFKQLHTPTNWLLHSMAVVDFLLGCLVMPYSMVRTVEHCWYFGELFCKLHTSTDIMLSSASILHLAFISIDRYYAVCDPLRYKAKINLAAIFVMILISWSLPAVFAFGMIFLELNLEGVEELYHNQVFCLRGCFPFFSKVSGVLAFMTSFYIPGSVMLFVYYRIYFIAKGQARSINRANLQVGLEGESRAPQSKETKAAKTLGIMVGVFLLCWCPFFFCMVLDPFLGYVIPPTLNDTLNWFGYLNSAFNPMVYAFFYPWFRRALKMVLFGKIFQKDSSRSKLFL

Structure (SMILES) | Ki (mouse TAAR1) | Ki (rat TAAR1) | Ki (rat TAAR1; [1]) | Ki (mouse TAAR1; read-out: Ki (μM) mouse, mouse TAAR1, HEK-293 membranes, first value of cell mouse/rat)
O=C(Nc1ccc([C@H]2O[C@@H]3CN[C@H]2C3)cc1)c1ccc(C(F)(F)F)cn1 [Example 36, N-[4-[(1S,3R,4S)-2-Oxa-5-azabicyclo[2.2.1]heptan-3-yl]phenyl]-5-(trifluoromethyl)pyridine-2-carboxamide] | 0.0325 µM | 1.28 µM |  | 
O=C(Nc1ccc([C@H]2O[C@@H]3CN[C@H]2C3)cc1)c1[nH]nc(C2CC2)c1Cl [Example 37, 4-Chloro-3-cyclopropyl-N-[4-[(1S,3R,4S)-2-oxa-5-azabicyclo[2.2.1]heptan-3-yl]phenyl]-1H-pyrazole-5-carboxamide] | 0.0613 µM | 2.67 µM |  | 
Clc1ccc(CNc2ccc([C@H]3O[C@@H]4CN[C@H]3C4)cc2)cc1 [Example 38, N-[(4-Chlorophenyl)methyl]-4-[(1S,3R,4S)-2-oxa-5-azabicyclo[2.2.1]heptan-3-yl]aniline] | 0.562 µM | 0.167 µM |  | 
FC(F)(F)c1ccc(CNc2ccc([C@H]3O[C@@H]4CN[C@H]3C4)cc2)cc1 [Example 39, 4-[(1S,3R,4S)-2-Oxa-5-azabicyclo[2.2.1]heptan-3-yl]-N-[[4-(trifluoromethyl)phenyl]methyl]aniline] | 0.0069 µM | 0.359 µM |  | 
Fc1ccc(CNc2ccc([C@H]3O[C@@H]4CN[C@H]3C4)cc2)cc1 [Example 40, N-[(4-Fluorophenyl)methyl]-4-[(1S,3R,4S)-2-oxa-5-azabicyclo[2.2.1]heptan-3-yl]aniline] | 0.636 µM | 0.19 µM |  | 
CCCCNc1ccc([C@H]2O[C@@H]3CN[C@H]2C3)cc1 [Example 41, N-Butyl-4-[(1S,3R,4S)-2-oxa-5-azabicyclo[2.2.1]heptan-3-yl]aniline] | 0.0222 µM |  | 2.83 µM | 
O=C(Nc1ccc([C@H]2O[C@@H]3CN[C@H]2C3)cc1)c1ccnc(C(F)(F)F)n1 [Example 42, N-[4-[(1S,3R,4S)-2-Oxa-5-azabicyclo[2.2.1]heptan-3-yl]phenyl]-2-(trifluoromethyl)pyrimidine-4-carboxamide] | 0.337 µM | 10 µM |  | 
FC(F)(F)Oc1ccc(CNc2ccc([C@H]3O[C@@H]4CN[C@H]3C4)cc2)cc1 [Example 52, 4-[(1S,3R,4S)-2-Oxa-5-azabicyclo[2.2.1]heptan-3-yl]-N-[[4-(trifluoromethoxy)phenyl]methyl]aniline] | 0.0043 µM | 0.194 µM |  | 
Brc1ccc([C@H]2O[C@@H]3CN[C@H]2C3)cc1 [Example 53, (1S,3R,4S)-3-(4-Bromophenyl)-2-oxa-5-azabicyclo[2.2.1]heptane] | 0.0034 µM | 0.0052 µM |  | 
Brc1ccc([C@@H]2O[C@H]3CN[C@@H]2C3)cc1 [Example 54, (1R,3S,4R)-3-(4-Bromophenyl)-2-oxa-5-azabicyclo[2.2.1]heptane] | 0.145 µM | 0.0346 µM |  | 
O=C(Nc1ccc(Cl)cc1)c1ccc([C@H]2O[C@@H]3CN[C@H]2C3)cc1 [Example 55] | 0.0007 µM | 0.0123 µM |  | 
CCOc1ccc(NC(=O)c2ccc([C@H]3O[C@@H]4CN[C@H]3C4)cc2)cc1 [Example 58, N-(4-Ethoxyphenyl)-4-[(1S,3R,4S)-2-oxa-5-azabicyclo[2.2.1]heptan-3-yl]benzamide] | 0.0013 µM | > 10 µM |  | 
O=C(Nc1ccc(Cl)nc1)c1ccc([C@H]2O[C@@H]3CN[C@H]2C3)cc1 [Example 60, N-(6-Chloro-3-pyridyl)-4-[(1S,3R,4S)-2-oxa-5-azabicyclo[2.2.1]heptan-3-yl]benzamide] | 0.0033 µM | 5.34 µM |  | 
FC(F)(F)c1ccc(Nc2ccc([C@H]3O[C@@H]4CN[C@H]3C4)cc2)cn1 [Example 61, N-[4-[(1S,3R,4S)-2-Oxa-5-azabicyclo[2.2.1]heptan-3-yl]phenyl]-6-(trifluoromethyl)pyridin-3-amine] | 0.0077 µM | 0.715 µM |  | 
CCc1n[nH]c(C(=O)Nc2ccc([C@@H]3O[C@H]4CN[C@@H]3C4)cc2)c1C [Example 67, 3-Ethyl-4-methyl-N-[4-[(1R,3S,4R)-2-oxa-5-azabicyclo[2.2.1]heptan-3-yl]phenyl]-11H-pyrazole-5-carboxamide] |  |  | 0.503 µM | 0.01 µM
O=C(COCCC(F)(F)F)Nc1ccc([C@H]2O[C@@H]3CN[C@H]2C3)cc1 [Example 70, N-[4-[(1S,3R,4S)-2-Oxa-5-azabicyclo[2.2.1]heptan-3-yl]phenyl]-2-(3,3,3-trifluoropropoxy)acetamide] | 0.0094 µM | 0.512 µM |  | 

Continued, in another order:

Ki (mouse TAAR1) | Ki (rat TAAR1) | Structure (SMILES) | Ki (rat TAAR1; [1]) | Ki (mouse TAAR1; read-out: Ki (μM) mouse, mouse TAAR1, HEK-293 membranes, first value of cell mouse/rat)
0.0144 µM | 0.167 µM | CC(C)c1cc(C(=O)Nc2ccc([C@H]3O[C@@H]4CN[C@H]3C4)cc2)[nH]n1 [Example 43, 3-Isopropyl-N-[4-[(1S,3R,4S)-2-oxa-5-azabicyclo[2.2.1]heptan-3-yl]phenyl]-1H-pyrazole-5-carboxamide] |  | 
0.0111 µM | 0.0848 µM | O=C(Nc1ccc([C@H]2O[C@@H]3CN[C@H]2C3)cc1)c1ccc(C(F)(F)F)nc1 [Example 44, N-[4-[(1S,3R,4S)-2-Oxa-5-azabicyclo[2.2.1]heptan-3-yl]phenyl]-6-(trifluoromethyl)pyridine-3-carboxamide] |  | 
0.0042 µM | 0.21 µM | CCOc1n[nH]c(C(=O)Nc2ccc([C@H]3O[C@@H]4CN[C@H]3C4)cc2)c1Cl [Example 45, 4-Chloro-3-ethoxy-N-[4-[(1S,3R,4S)-2-oxa-5-azabicyclo[2.2.1]heptan-3-yl]phenyl]-1H-pyrazole-5-carboxamide] |  | 
0.0098 µM | 0.673 µM | Cc1n[nH]c(C(=O)Nc2ccc([C@H]3O[C@@H]4CN[C@H]3C4)cc2)c1Cl [Example 46, 4-Chloro-3-methyl-N-[4-[(1S,3R,4S)-2-oxa-5-azabicyclo[2.2.1]heptan-3-yl]phenyl]-1H-pyrazole-5-carboxamide] |  | 
0.313 µM | 2.3 µM | Cc1cn[nH]c1C(=O)Nc1ccc([C@H]2O[C@@H]3CN[C@H]2C3)cc1 [Example 47, 4-Methyl-N-[4-[(1S,3R,4S)-2-oxa-5-azabicyclo[2.2.1]heptan-3-yl]phenyl]-1H-pyrazole-5-carboxamide] |  | 
0.0114 µM | 1.35 µM | CCCc1c(Cl)c(C(=O)Nc2ccc([C@H]3O[C@@H]4CN[C@H]3C4)cc2)nn1C [Example 48, 4-Chloro-1-methyl-N-[4-[(1S,3R,4S)-2-oxa-5-azabicyclo[2.2.1]heptan-3-yl]phenyl]-5-propyl-pyrazole-3-carboxamide] |  | 
0.0044 µM | 0.037 µM | CCCc1n[nH]c(C(=O)Nc2ccc([C@H]3O[C@@H]4CN[C@H]3C4)cc2)c1Cl [Example 49, 4-Chloro-N-[4-[(1S,3R,4S)-2-oxa-5-azabicyclo[2.2.1]heptan-3-yl]phenyl]-3-propyl-1H-pyrazole-5-carboxamide] |  | 
0.0128 µM | 0.344 µM | CCc1n[nH]c(C(=O)Nc2ccc([C@H]3O[C@@H]4CN[C@H]3C4)cc2)c1C [Example 50, 3-Ethyl-4-methyl-N-[4-[(1S,3R,4S)-2-oxa-5-azabicyclo[2.2.1]heptan-3-yl]phenyl]-1H-pyrazole-5-carboxamide] |  | 
0.0034 µM | 0.0438 µM | O=C(Nc1ccc([C@H]2O[C@@H]3CN[C@H]2C3)cc1)c1ccc(OCC(F)(F)F)cn1 [Example 51, N-[4-[(1S,3R,4S)-2-Oxa-5-azabicyclo[2.2.1]heptan-3-yl]phenyl]-5-(2,2,2-trifluoroethoxy)pyridine-2-carboxamide] |  | 
0.0009 µM | 0.0501 µM | O=C(Nc1ccc(Br)cc1)c1ccc([C@H]2O[C@@H]3CN[C@H]2C3)cc1 [Example 56, N-(4-Bromophenyl)-4-[(1S,3R,4S)-2-oxa-5-azabicyclo[2.2.1]heptan-3-yl]benzamide] |  | 
0.0034 µM | 0.0458 µM | O=C(Nc1ccc(F)cc1)c1ccc([C@H]2O[C@@H]3CN[C@H]2C3)cc1 [Example 57, N-(4-Fluorophenyl)-4-[(1S,3R,4S)-2-oxa-5-azabicyclo[2.2.1]heptan-3-yl]benzamide] |  | 
0.0022 µM | 1.02 µM | O=C(Nc1ccc(C(F)(F)F)cc1)c1ccc([C@H]2O[C@@H]3CN[C@H]2C3)cc1 [Example 59, 4-[(1S,3R,4S)-2-Oxa-5-azabicyclo[2.2.1]heptan-3-yl]-N-[4-(trifluoromethyl)phenyl]benzamide] |  | 
0.0049 µM | 0.107 µM | CCOc1ccc(NC(=O)c2ccc([C@H]3O[C@@H]4CN[C@H]3C4)cc2)cn1 [Example 62, N-(6-Ethoxy-3-pyridyl)-4-[(1S,3R,4S)-2-oxa-5-azabicyclo[2.2.1]heptan-3-yl]benzamide] |  | 
0.0034 µM | 0.593 µM | O=C(NCc1ccc(C(F)(F)F)cc1)c1ccc([C@H]2O[C@@H]3CN[C@H]2C3)cc1 [Example 63, 4-[(1S,3R,4S)-2-Oxa-5-azabicyclo[2.2.1]heptan-3-yl]-N-[[4-(trifluoromethyl)phenyl]methyl]benzamide] |  | 
0.0033 µM | 1.6 µM | O=C(NCc1ccc(Cl)cc1)c1ccc([C@H]2O[C@@H]3CN[C@H]2C3)cc1 [Example 64, N-[(4-Chlorophenyl)methyl]-4-[(1S,3R,4S)-2-oxa-5-azabicyclo[2.2.1]heptan-3-yl]benzamide] |  | 
2.07 µM | 0.0702 µM | COCCCNc1ccc([C@H]2O[C@@H]3CN[C@H]2C3)cc1 [Example 65, N-(3-Methoxypropyl)-4-[(1S,3R,4S)-2-oxa-5-azabicyclo[2.2.1]heptan-3-yl]aniline] |  | 
0.0123 µM | 3.96 µM | O=C(COCC(F)(F)F)Nc1ccc([C@H]2O[C@@H]3CN[C@H]2C3)cc1 [Example 66, N-[4-[(1S,3R,4S)-2-Oxa-5-azabicyclo[2.2.1]heptan-3-yl]phenyl]-2-(2,2,2-trifluoroethoxy)acetamide] |  | 
0.0031 µM | 0.0179 µM | CCCc1n[nH]c(C(=O)Nc2ccc([C@@H]3O[C@H]4CN[C@@H]3C4)cc2)c1Cl [Example 68, 4-Chloro-N-[4-[(1R,3S,4R)-2-oxa-5-azabicyclo[2.2.1]heptan-3-yl]phenyl]-3-propyl-1H-pyrazole-5-carboxamide] |  | 
0.0066 µM | 0.153 µM | Cc1c(C2CC2)n[nH]c1C(=O)Nc1ccc([C@@H]2O[C@H]3CN[C@@H]2C3)cc1 [Example 69, 3-Cyclopropyl-4-methyl-N-[4-[(1R,3S,4R)-2-oxa-5-azabicyclo[2.2.1]heptan-3-yl]phenyl]-1H-pyrazole-5-carboxamide] |  | 
